These results are taken from paper PMC9098913, “In vitro reconstitution of Escherichia coli divisome activation” (Nature Communications, 2022).

The nature of this experiment: Single-molecule membrane residence time of FtsA. Format: binding. Details: Single Molecule Lifetime: unit not given here. The settings on record: for Single Molecule Lifetime, mean: mean of Exp. 1-3, n = 3, Fig. 3b; for mean residence time on the membrane: single-particle tracking, n = 3. Here is the method:
First, we studied the behaviour of single FtsA proteins on the membrane surface.
After 5 min of incubation, single molecule time lapses were acquired every 125, 250, 500, and 1000 and 2000 ms, with an exposure time of 50 ms. Subsequently, the bulk concentration of FtsA was increased to 0.2/0.4/0.8 µM and time lapses were repeated as described above.
Single molecules of FtsA or FtsZ were tracked using the TrackMate plugin from ImageJ[43]. To obtain the residence time of FtsZ and FtsA, we performed a residence time analysis as described before[40],[47]. Shortly, single molecules were imaged at different acquisition rates (0.1–2 s) and the lifetime of the molecules was extracted from each data set. To account for photobleaching effect, the obtained lifetimes were plotted against the acquisition rate. […] Furthermore, we extracted the diffusion coefficient of FtsA single molecules at increasing concentrations. For this, we filtered the obtained data, by considering only trajectories which are present on the membrane for more than 0.4 s. […] Subsequently, the diffusion coefficient of FtsA molecules was estimated by fitting an MSD curve to each individual trajectory.

For the molecule “FtsA WT: wild-type E. coli actin-homologue FtsA, membrane anchor of FtsZ”, the “Single Molecule Lifetime” value was 15.60 (0.1 µM FtsA, Exp. 1); 17.80 (0.1µM FtsA, Exp. 2); 24.80 (0.1 µM FtsA, Exp. 3); 13.20 (0.2 µM FtsA, Exp. 1); 21.50 (0.2µM FtsA, Exp. 2); 28.80 (0.2 µM FtsA, Exp. 3). Also, the “Single Molecule Lifetime” value (0.4 µM FtsA, Exp. 1) stood at 28.70; the “Single Molecule Lifetime” value (0.4µM FtsA, Exp. 2) is 24.00; the “Single Molecule Lifetime” value (0.4 µM FtsA, Exp. 3) is reported as 26.30; the “Single Molecule Lifetime” value (0.8 µM FtsA, Exp. 1) is recorded as 37.60; the “Single Molecule Lifetime” value (0.8µM FtsA, Exp. 2) is 32.60; the “Single Molecule Lifetime” value (0.8 µM FtsA, Exp. 3) is listed as 35.20. Besides, the “Single Molecule Lifetime, mean” value amounted to 19.40 (0.1 µM FtsA), 21.17 (0.2 µM FtsA), 26.33 (0.4 µM FtsA) and 35.13 (0.8 µM FtsA). For the same molecule, the “mean residence time on the membrane” value by setting is: (0.1 µM FtsA) 19.4 ± 3.9 s; (0.8 µM FtsA) 35.1 ± 2.0 s.

B1: FtsA R286W (protein)
chain: MIKATDRKLVVGLEIGTAKVAALVGEVLPDGMVNIIGVGSCPSRGMDKGGVNDLESVVKCVQRAIDQAELMADCQISSVYLALSGKHISCQNEIGMVPISEEEVTQEDVENVVHTAKSVRVRDEHRVLHVIPQEYAIDYQEGIKNPVGLSGVRMQAKVHLITCHNDMAKNIVKAVERCGLKVDQLIFAGLASSYSVLTEDERELGVCVVDIGGGTMDIAVYTGGALRHTKVIPYAGNVVTSDIAYAFGTPPSDAEAIKVRHGCALGSIVGKDESVEVPSVGGRPPWSLQRQTLAEVIEPRYTELLNLVNEEILQLQEKLRQQGVKHHLAAGIVLTGGAAQIEGLAACAQRVFHTQVRIGAPLNITGLTDYAQEPYYSTAVGLLHYGKESHLNGEAEVEKRVTASVGSWIKRLNSWLRKEF
modifications: Cy3 or Cy5 at the N-terminus in the labelled form (labelled CLEPTGG peptide conjugated to the 5xGly tag by sortagging); unlabelled protein also used; left off: TwinStrep-SUMO, N-terminal, cleaved | 5x
In the case of B1, the “Single Molecule Lifetime” value (0.1 µM FtsA, Exp. 1) was 1.99; the “Single Molecule Lifetime” value (0.1µM FtsA, Exp. 2) amounted to 2.89; the “Single Molecule Lifetime” value (0.1 µM FtsA, Exp. 3) worked out at 3.02; the “Single Molecule Lifetime” value (0.2 µM FtsA, Exp. 1) worked out at 3.32; the “Single Molecule Lifetime” value (0.2µM FtsA, Exp. 2) came out at 7.68; the “Single Molecule Lifetime” value (0.2 µM FtsA, Exp. 3) came out at 10.90. For the same molecule, the “Single Molecule Lifetime” value turned out to be 8.16 (0.4 µM FtsA, Exp. 1); 11.60 (0.4µM FtsA, Exp. 2); 5.33 (0.4 µM FtsA, Exp. 3); 15.60 (0.8 µM FtsA, Exp. 1); 10.90 (0.8µM FtsA, Exp. 2); 15.80 (0.8 µM FtsA, Exp. 3). In addition, the “Single Molecule Lifetime, mean” value worked out at 2.63 (0.1 µM FtsA), 7.30 (0.2 µM FtsA), 8.36 (0.4 µM FtsA) and 14.10 (0.8 µM FtsA).
